Measured values taken from patent US10487078B2, “Compositions and methods of targeting mutant K-RAS” (NantBio, Inc., priority 2015, dated 2019).
Where two headings read alike, the source gives them in different places.

Experiments:
K-ras G12D = K-ras G12D (Homo sapiens, UniProt P01116, G12D); experiment: G-LISA Ras activation assay, 293H cells transfected with G12D mutant; assay type: cell-based; details: 1 hour treatment
Procedure: (§1) 293H cells were seeded in 6-wells at 0.6×10^6 cells per well and transfected next day with 5 μg of Ras wild-type, or G12C, G12D or G12V mutant DNA plasmid vector using transfection reagent Lipofectamine 3000. Next day cells were treated with 3.125-50 μM of Ras compounds for 1 hour. Wild-type transfected cells were subsequently treated with 100 ng/ml EGF for 2 minutes. Cells were washed once in ice-cold PBS, lysed in complete lysis buffer on ice, and processed by G-LISA according to Cytoskeleton protocol.
(§2) In-cell selectivity of the compounds presented herein against a specific K-ras mutant form can also be tested as shown in the following exemplary experiment. 293H cells were seeded in 6-wells and transfected next day with 5 μg of Ras wild-type, or G12C, G12D or G12V mutant DNA plasmid vector. Next day cells were treated with 3.125-50 μM of Ras compounds for 1 hour. Wild-type transfected cells were subsequently treated with 100 ng/ml EGF for 2 minutes. Cells were washed once in ice-cold PBS, lysed in complete lysis buffer on ice, and processed by G-LISA according to Cytoskeleton protocol. FIG. 1 depicts exemplary results.
as §1, with “In still further experiments, the inventors tested selected compounds in a G-LISA assay to compare IC50 values for wild-type and various mutant K-Ras (G12D, G12V) using the following general protocol: 293H” for “293H”

K-ras wild-type (GTP) = K-ras wild-type (GTP) (Homo sapiens, UniProt P01116); experiment: SPR assay (surface plasmon resonance); assay type: binding; details: 25° C., 8% DMSO
Procedure: (§3) Selected compounds were also tested for selective binding to wild type and mutant forms of K-ras in the active and non-active state using surface plasmon resonance, and exemplary results are shown in Table 4.
(§4) The running buffer in all surface plasmon resonance experiments was 10 mM HEPES pH 7.4, 150 mM NaCl, 0.1% (v/v) Tween-20, 1 mM MgCl2, 8% DMSO. Experiments were carried out on the SensiQ Pioneer optical biosensor. The flow rate was set at 50 μL/min and the temperature was 25° C. kRAS protein was immobilized to the Nickel-NTA charged surface of the SensiQ HisCap chip (sensiqtech.com) giving a yield of 4000 RU. Small molecules were prepared in 100% DMSO and further diluted to 8% DMSO in running buffer. The small molecules were injected using the Taylor diffusion gradient injection mode (OneStep®, see e.g., Evaluation of Taylor dispersion injections: Determining kinetic/affinity interaction constants and diffusion coefficients in label-free biosensing, John G. Quinn, Analytical Biochemistry (2011)). Buffer blanks were injected for double referencing purposes. Data processing and model fitting were performed using Qdat.

K-Ras wild-type = K-Ras wild-type (Homo sapiens, UniProt P01116); experiment: G-LISA Ras activation assay, 293H cells transfected with Ras wild-type, EGF-stimulated; assay type: cell-based; details: Table 5; IC50, 293H transfected, 1 hour treatment, 100 ng/ml EGF; read-out: G-LISA (wild type)
Procedure: as §1, §2
as §1, with “In still further experiments, the inventors tested selected compounds in a G-LISA assay to compare IC50 values for wild-type and various mutant K-Ras (G12D, G12V) using the following general protocol: 293H” for “293H”

K-ras G12D (GTP) = K-ras G12D (GTP) (Homo sapiens, UniProt P01116, G12D); experiment: SPR assay (surface plasmon resonance); assay type: binding; details: 25° C., 8% DMSO
Procedure: as §3, §4

K-ras G12V (GTP) = K-ras G12V (GTP) (Homo sapiens, UniProt P01116, G12V); experiment: SPR assay (surface plasmon resonance); assay type: binding; details: 25° C., 8% DMSO
Procedure: as §3, §4

[1] = Table 1, G-LISA, 293H transfected, read-out: IC50 (μM) G12D
[2] = Table 5, IC50, 293H transfected, read-out: G-LISA (G12D)

Compound | IC50 (K-ras G12D; [1]) | IC50 (K-ras G12D; [2]) | Kd (K-ras wild-type (GTP)) | SPR Assay Wild-type (GTP) Rmax (K-ras wild-type (GTP)) | IC50 (K-Ras wild-type) | Kd (K-ras G12D (GTP)) | SPR Assay G12D (GTP) Rmax (K-ras G12D (GTP)) | Kd (K-ras G12V (GTP)) | SPR Assay G12V (GTP) Rmax (K-ras G12V (GTP))
Cc1nc(C)c(C(=O)Nc2nc(-c3ccc4c(c3)CC(=O)N4)cs2)s1 [Compound 4639] | > 25 µM | > 25 µM | 6.4 µM | Rmax = 14.6 ± 0.1 |  |  |  |  | 
Cc1nc(C)c(C(=O)Nc2nc(-c3ccc4c(c3)CCC(=O)N4)cs2)[nH]1 [Compound 4805] | > 25 µM | 187 µM |  |  | 7 µM | 570 µM | Rmax = 219 ± 5 | 12.1 µM | Rmax = 100.3 ± 0.2
